# ChEMBL document CHEMBL3588775, “Synthesis and pharmacological evaluation of N-benzyl substituted 4-bromo-2,5-dimethoxyphenethylamines as 5-HT2A/2C partial agonists” (Bioorg Med Chem, 2015)
# Key:
# [1] = molecular target: T1, 5-hydroxytryptamine receptor 2A (Homo sapiens, UniProt P28223); experiment: Binding affinity to 5-HT2A receptor (unknown origin) by PDSP assay
# [2] = molecular target: T2, 5-hydroxytryptamine receptor 2C (Homo sapiens, UniProt P28335); experiment: Binding affinity to 5-HT2C receptor (unknown origin) by PDSP assay
# T2 sequence (P28335 whole entry): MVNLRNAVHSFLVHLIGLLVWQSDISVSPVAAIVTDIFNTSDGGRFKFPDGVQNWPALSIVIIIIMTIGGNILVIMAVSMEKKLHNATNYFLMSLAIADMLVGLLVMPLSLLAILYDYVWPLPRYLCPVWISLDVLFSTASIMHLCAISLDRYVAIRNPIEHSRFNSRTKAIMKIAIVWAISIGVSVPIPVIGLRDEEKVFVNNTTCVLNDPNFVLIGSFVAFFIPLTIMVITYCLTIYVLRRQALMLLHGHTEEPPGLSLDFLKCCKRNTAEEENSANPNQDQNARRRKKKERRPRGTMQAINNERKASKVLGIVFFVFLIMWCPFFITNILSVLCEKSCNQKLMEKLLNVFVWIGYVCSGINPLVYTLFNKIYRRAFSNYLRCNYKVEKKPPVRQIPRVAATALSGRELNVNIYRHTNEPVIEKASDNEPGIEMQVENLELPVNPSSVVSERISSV
# [3] = molecular target: T3, Serotonin 2 receptors; 5-HT2a & 5-HT2c (Homo sapiens) (UniProt P28223+P28335); experiment: Selectivity for 5-HT2A receptor (unknown origin) over 5-HT2C receptor (unknown origin) by PDSP assay
# [4] = molecular target: T2, 5-hydroxytryptamine receptor 2C; experiment: Partial agonist activity at human 5-HT2C receptor expressed in HEK293 cells preincubated for 1 hr at 37 degC followed by incubated for 15 mins at room temperature by IP-One assay; type: cell-based
# [5] = molecular target: T3, Serotonin 2 receptors; 5-HT2a & 5-HT2c (Homo sapiens); experiment: Selectivity for human 5-HT2A receptor over human 5-HT2C receptor by IP-One assay
# [6] = molecular target: T1, 5-hydroxytryptamine receptor 2A; experiment: Partial agonist activity at human 5-HT2A receptor expressed in HEK293 cells preincubated for 1 hr at 37 degC followed by incubated for 15 mins at room temperature by IP-One assay relative to 5-HT; type: cell-based
# [7] = molecular target: T4, 5-hydroxytryptamine receptor 2C (Homo sapiens) (UniProt P28335); experiment: Partial agonist activity at human 5-HT2C receptor expressed in HEK293 cells preincubated for 1 hr at 37 degC followed by incubated for 15 mins at room temperature by IP-One assay relative to 5-HT; type: cell-based
# T4 sequence (whole entry): T2 sequence (P28335 whole entry)
# [8] = molecular target: T1, 5-hydroxytryptamine receptor 2A
# [9] = molecular target: T1, 5-hydroxytryptamine receptor 2A; experiment: Partial agonist activity at human 5-HT2A receptor expressed in human tsA201 cells after 30 mins by inositol phosphate turnover assay; type: functional, cell-based
# [10] = molecular target: T2, 5-hydroxytryptamine receptor 2C; experiment: Partial agonist activity at human 5-HT2C receptor expressed in human tsA201 cells after 30 mins by inositol phosphate turnover assay; type: functional, cell-based
# [11] = molecular target: T3, Serotonin 2 receptors; 5-HT2a & 5-HT2c (Homo sapiens); experiment: Selectivity for human 5-HT2A receptor over human 5-HT2C receptor by inositol phosphate turnover assay; type: functional
# [12] = molecular target: T1, 5-hydroxytryptamine receptor 2A; experiment: Partial agonist activity at human 5-HT2A receptor expressed in human tsA201 cells after 30 mins by inositol phosphate turnover assay relative to 5-HT; type: functional, cell-based
# [13] = molecular target: T4, 5-hydroxytryptamine receptor 2C (Homo sapiens); experiment: Partial agonist activity at human 5-HT2C receptor expressed in human tsA201 cells after 30 mins by inositol phosphate turnover assay relative to 5-HT; type: functional, cell-based
# [14] = molecular target: T1, 5-hydroxytryptamine receptor 2A; experiment: Displacement of [3H]-Ketanserin from human 5-HT2A receptor by PDSP assay
# [15] = molecular target: T5, 5-hydroxytryptamine receptor 2C (Rattus norvegicus, UniProt P08909); experiment: Displacement of [3H]-Mesulergine from rat 5-HT2C receptor by PDSP assay
# T5 sequence (P08909 whole entry): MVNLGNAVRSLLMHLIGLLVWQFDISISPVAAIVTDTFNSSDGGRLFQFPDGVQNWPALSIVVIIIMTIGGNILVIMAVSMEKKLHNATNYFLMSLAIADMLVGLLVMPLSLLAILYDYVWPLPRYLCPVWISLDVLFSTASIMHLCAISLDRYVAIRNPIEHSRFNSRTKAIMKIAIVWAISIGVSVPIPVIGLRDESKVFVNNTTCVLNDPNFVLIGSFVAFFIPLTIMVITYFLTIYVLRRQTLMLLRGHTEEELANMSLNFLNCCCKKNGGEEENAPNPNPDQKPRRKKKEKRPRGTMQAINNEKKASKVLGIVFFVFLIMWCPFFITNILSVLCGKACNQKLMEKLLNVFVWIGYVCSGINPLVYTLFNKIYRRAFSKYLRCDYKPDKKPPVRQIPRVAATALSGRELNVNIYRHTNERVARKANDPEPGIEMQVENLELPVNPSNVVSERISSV
# [16] = Selectivity for human 5-HT2A receptor over rat 5-HT2C receptor by PDSP assay
# T1 sequence (P28223 whole entry): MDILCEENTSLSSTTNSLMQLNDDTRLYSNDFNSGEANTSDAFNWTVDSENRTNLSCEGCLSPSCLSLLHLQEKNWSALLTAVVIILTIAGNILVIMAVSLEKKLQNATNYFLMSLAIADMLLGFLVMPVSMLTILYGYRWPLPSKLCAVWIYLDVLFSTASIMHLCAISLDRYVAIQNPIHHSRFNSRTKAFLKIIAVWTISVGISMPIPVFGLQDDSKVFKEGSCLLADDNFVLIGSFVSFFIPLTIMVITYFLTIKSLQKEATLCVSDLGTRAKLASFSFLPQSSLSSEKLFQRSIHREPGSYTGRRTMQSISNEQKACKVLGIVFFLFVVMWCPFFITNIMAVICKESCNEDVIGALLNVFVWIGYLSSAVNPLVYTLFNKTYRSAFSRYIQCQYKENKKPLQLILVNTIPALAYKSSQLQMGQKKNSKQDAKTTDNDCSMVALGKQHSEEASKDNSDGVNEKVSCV
# T3 sequence (P28223 whole entry, looked up, one chain of several): as the sequence (P28223 whole entry) above
Structure (SMILES),Ki [1] [nM],Ki [2] [nM],Selectivity ratio [3],also measured
COc1cc(CCNCc2ccncc2)c(OC)cc1Br,141,155,1.1,–
COc1ccc(CNCCc2cc(OC)c(Br)cc2OC)c(OC)c1,20,26.9,1.3,–
COc1cc(CCNCc2cccc(OC)c2F)c(OC)cc1Br,3.31,56.2,17,EC50 [4]: 282 nM; Selectivity ratio [5]: 2.7; Emax [6]: 22%; Emax [7]: 16%; EC50 [8]: 105 nM
COc1cc(CCNCc2cccc3nc[nH]c23)c(OC)cc1Br,7.76,9.33,1.2,–
COc1cc(CCNCc2cccc3cn[nH]c23)c(OC)cc1Br,12,24,2,–
COc1cc(CCNCc2cccc(O)c2)c(OC)cc1Br,1.35,20.9,16,–
COc1cc(CCNCc2cccnc2)c(OC)cc1Br,83.2,120,1.4,–
COc1cc(CC(C)N)c(OC)cc1I (configuration not stated),–,–,–,EC50 [4]: 45.7 nM; Emax [6]: 87%; Emax [7]: 119%
COc1cc(CCNCc2cccc3ncoc23)c(OC)cc1Br,11,32.4,2.9,–
COc1cc(CCNCc2ccccn2)c(OC)cc1Br,38.9,41.7,1.1,–
COc1cc(CCNCc2cccc3c2OCC3)c(OC)cc1Br,0.2,3.39,17,EC50 [4]: 32.4 nM; Selectivity ratio [5]: 7.1; Emax [6]: 33%; Emax [7]: 52%; EC50 [8]: 4.57 nM
COc1cc(CCNCc2cccc3c2OCO3)c(OC)cc1Br,–,–,–,EC50 [9]: 10.5 nM; EC50 [10]: 219 nM; Selectivity ratio [11]: 18; Emax [12]: 71%; Emax [13]: 84%; Ki [14]: 0.603 nM; Ki [15]: 11.2 nM; Selectivity ratio [16]: 18.6
COc1cc(CCNCc2ccccc2OC)c(OC)cc1Br,–,–,–,Selectivity ratio [16]: 100
COc1cc(CCNCc2cccc(OC)c2O)c(OC)cc1Br,0.2,6.31,32,EC50 [4]: 15500 nM; Selectivity ratio [5]: 457; Emax [6]: 21%; Emax [7]: 52%; EC50 [8]: 33.9 nM
COc1cc(CCNCc2cccc3cc[nH]c23)c(OC)cc1Br,12.9,66.1,5.1,–
COc1cc(CCNCc2ccc[nH]c2=O)c(OC)cc1Br,123,120,1,–
COc1cc(CCNCc2cccc3ccsc23)c(OC)cc1Br,1.7,7.76,4.5,–
COc1ccc(OC)c(CNCCc2cc(OC)c(Br)cc2OC)c1,30.9,77.6,2.5,–
COc1cc(CCNCc2cccnc2OC)c(OC)cc1Br,79.4,70.8,0.9,–
COc1cccc(CNCCc2cc(OC)c(Br)cc2OC)c1,0.437,4.68,11,–
COc1cc(CCNCc2cccc3ccoc23)c(OC)cc1Br,0.603,2.51,4.2,–
COc1cc(CCNCc2c(OC)cccc2OC)c(OC)cc1Br,316,17.4,0.06,EC50 [4]: 87100 nM; Selectivity ratio [5]: 16; Emax [6]: 53%; Emax [7]: 33%; EC50 [8]: 5370 nM
COc1cc(CCNCc2cccc(OC)c2OC)c(OC)cc1Br,3.09,23.4,7.5,–
